# Measurements as given in ChEMBL document CHEMBL3616471, “Synthesis and in vitro antitumor evaluation of betulin acid ester derivatives as novel apoptosis inducers” (Eur J Med Chem, 2015).
# Active and inactive are the calls of the source. The calls are words filed in the database; no cut-off is given here.
# How the values were obtained:
# A-375 [1] = assay: Selectivity index, ratio of IC50 for mouse NIH/3T3 cells to IC50 for human A375 cells; assay type: functional
# MGC-803 [2] = assay: Selectivity index, ratio of IC50 for mouse NIH/3T3 cells to IC50 for human MGC803 cells; assay type: functional
# MCF7 [3] = assay: Selectivity index, ratio of IC50 for mouse NIH/3T3 cells to IC50 for human MCF7 cells; assay type: functional
# Bcap37 [4] = assay: Cytotoxicity against human Bcap37 cells after 72 hrs by MTT assay; assay type: functional, cell-based; conditions: Bcap37, 72 h
# [5] = Cytotoxicity against mouse NIH/3T3 cells after 72 hrs by MTT assay; assay type: cell-based; conditions: nih3t3, 72 h
# MCF7 [6] = assay: Cytotoxicity against human MCF7 cells after 72 hrs by MTT assay; assay type: functional, cell-based; conditions: MCF7, 72 h
# PC-3 [7] = assay: Cytotoxicity against human PC3 cells after 72 hrs by MTT assay; assay type: functional, cell-based; conditions: PC-3, 72 h
# PC-3 [8] = assay: Selectivity index, ratio of IC50 for mouse NIH/3T3 cells to IC50 for human PC3 cells; assay type: functional
# MGC-803 [9] = assay: Cytotoxicity against human MGC803 cells after 72 hrs by MTT assay; assay type: functional, cell-based; conditions: MGC-803, 72 h
# Bcap37 [10] = assay: Selectivity index, ratio of IC50 for mouse NIH/3T3 cells to IC50 for human Bcap37 cells; assay type: functional
# A-375 [11] = assay: Cytotoxicity against human A375 cells after 72 hrs by MTT assay; assay type: functional, cell-based; conditions: A-375, 72 h
# MGC-803 [12] = assay: Induction of apoptosis in human MGC803 cells assessed as compact and condensed chromatin at 10 uM after 48 hrs using Hoechst 33258 staining by fluorescence microscopic analysis; assay type: functional, cell-based
# MGC-803 [13] = assay: Induction of apoptosis in human MGC803 cells assessed as formation of nicks in DNA at 10 uM after 48 hrs by TUNNEL assay; assay type: functional, cell-based
smiles,measurement,setting,value
C=C(C)[C@@H]1CC[C@]2(COC(=O)/C=C/C(=O)O)CC[C@]3(C)[C@H](CC[C@@H]4[C@@]5(C)CC[C@H](O)C(C)(C)[C@@H]5CC[C@]43C)[C@@H]12,Ratio IC50,A-375 [1],>3
same,Ratio IC50,MGC-803 [2],>3
same,Ratio IC50,MCF7 [3],>3
same,IC50,Bcap37 [4],18.3 µM
same,Activity,[5],Toxic
same,IC50,MCF7 [6],17.1 µM
same,IC50,PC-3 [7],25.8 µM
same,Ratio IC50,PC-3 [8],>3
same,IC50,MGC-803 [9],21.3 µM
same,Ratio IC50,Bcap37 [10],>3
same,IC50,A-375 [11],23.2 µM
C=C(C)[C@@H]1CC[C@]2(COC(=O)/C=C/c3ccccc3)CC[C@]3(C)[C@H](CC[C@@H]4[C@@]5(C)CC[C@H](O)C(C)(C)[C@@H]5CC[C@]43C)[C@@H]12,IC50,Bcap37 [4],> 100 µM
same,IC50,MCF7 [6],> 100 µM
same,IC50,PC-3 [7],> 100 µM
same,IC50,MGC-803 [9],> 100 µM
same,IC50,A-375 [11],> 100 µM
C=C(C)[C@@H]1CC[C@]2(COC(=O)Cc3ccc(Cl)cc3)CC[C@]3(C)[C@H](CC[C@@H]4[C@@]5(C)CC[C@H](O)C(C)(C)[C@@H]5CC[C@]43C)[C@@H]12,IC50,Bcap37 [4],> 100 µM
same,IC50,MCF7 [6],> 100 µM
same,IC50,PC-3 [7],> 100 µM
same,IC50,MGC-803 [9],> 100 µM
same,IC50,A-375 [11],> 100 µM
C=C(C)[C@@H]1CC[C@]2(COC(=O)CCC(=O)N(CC)CC)CC[C@]3(C)[C@H](CC[C@@H]4[C@@]5(C)CC[C@H](O)C(C)(C)[C@@H]5CC[C@]43C)[C@@H]12,Ratio IC50,A-375 [1],6.01
same,Ratio IC50,MGC-803 [2],7.29
same,Ratio IC50,MCF7 [3],6.73
same,IC50,Bcap37 [4],6.7 µM
same,Activity,[5],Non-toxic
same,IC50,MCF7 [6],9.2 µM
same,IC50,PC-3 [7],9.6 µM
same,Ratio IC50,PC-3 [8],6.45
same,IC50,MGC-803 [9],8.5 µM
same,Ratio IC50,Bcap37 [10],9.25
same,IC50,A-375 [11],10.3 µM
C=C(C)[C@@H]1CC[C@]2(COC(=O)c3cccc(Cl)c3)CC[C@]3(C)[C@H](CC[C@@H]4[C@@]5(C)CC[C@H](O)C(C)(C)[C@@H]5CC[C@]43C)[C@@H]12,IC50,Bcap37 [4],> 100 µM
same,IC50,MCF7 [6],> 100 µM
same,IC50,PC-3 [7],> 100 µM
same,IC50,MGC-803 [9],> 100 µM
same,IC50,A-375 [11],> 100 µM
C=C(C)[C@@H]1CC[C@]2(COC(=O)CCC(=O)N3CCOCC3)CC[C@]3(C)[C@H](CC[C@@H]4[C@@]5(C)CC[C@H](O)C(C)(C)[C@@H]5CC[C@]43C)[C@@H]12,Ratio IC50,A-375 [1],3.1
same,Ratio IC50,MGC-803 [2],6.23
same,Ratio IC50,MCF7 [3],4.99
same,IC50,Bcap37 [4],6.4 µM
same,Activity,[5],Non-toxic
same,IC50,MCF7 [6],11.5 µM
same,IC50,PC-3 [7],11.2 µM
same,Ratio IC50,PC-3 [8],5.12
same,IC50,MGC-803 [9],9.2 µM
same,Ratio IC50,Bcap37 [10],8.97
same,IC50,A-375 [11],18.5 µM
C=C(C)[C@@H]1CC[C@]2(COC(=O)c3ccccc3C(F)(F)F)CC[C@]3(C)[C@H](CC[C@@H]4[C@@]5(C)CC[C@H](OC(=O)c6ccccc6C(F)(F)F)C(C)(C)[C@@H]5CC[C@]43C)[C@@H]12,IC50,Bcap37 [4],> 100 µM
same,IC50,MCF7 [6],> 100 µM
same,IC50,PC-3 [7],> 100 µM
same,IC50,MGC-803 [9],> 100 µM
same,IC50,A-375 [11],> 100 µM
C=C(C)[C@@H]1CC[C@]2(COC(=O)c3ccccc3C)CC[C@]3(C)[C@H](CC[C@@H]4[C@@]5(C)CC[C@H](O)C(C)(C)[C@@H]5CC[C@]43C)[C@@H]12,IC50,Bcap37 [4],> 100 µM
same,IC50,MCF7 [6],> 100 µM
same,IC50,PC-3 [7],> 100 µM
same,IC50,MGC-803 [9],> 100 µM
same,IC50,A-375 [11],> 100 µM
C=C(C)[C@@H]1CC[C@]2(COC(=O)c3ccccc3C(F)(F)F)CC[C@]3(C)[C@H](CC[C@@H]4[C@@]5(C)CC[C@H](O)C(C)(C)[C@@H]5CC[C@]43C)[C@@H]12,IC50,Bcap37 [4],> 100 µM
same,IC50,MCF7 [6],> 100 µM
same,IC50,PC-3 [7],> 100 µM
same,IC50,MGC-803 [9],> 100 µM
same,IC50,A-375 [11],> 100 µM
C=C(C)[C@@H]1CC[C@]2(COC(=O)c3cccc([N+](=O)[O-])c3)CC[C@]3(C)[C@H](CC[C@@H]4[C@@]5(C)CC[C@H](OC(=O)c6cccc([N+](=O)[O-])c6)C(C)(C)[C@@H]5CC[C@]43C)[C@@H]12,IC50,Bcap37 [4],> 100 µM
same,IC50,MCF7 [6],> 100 µM
same,IC50,PC-3 [7],> 100 µM
same,IC50,MGC-803 [9],> 100 µM
same,IC50,A-375 [11],> 100 µM
CC[C@@]1(O)C(=O)OCc2c1cc1n(c2=O)Cc2cc3cc(O)ccc3nc2-1,Activity,MGC-803 [12],Active
same,Activity,MGC-803 [13],Active
C=C(C)[C@@H]1CC[C@]2(COC(=O)CCC(=O)O)CC[C@]3(C)[C@H](CC[C@@H]4[C@@]5(C)CC[C@H](O)C(C)(C)[C@@H]5CC[C@]43C)[C@@H]12,Ratio IC50,A-375 [1],4.07
same,Ratio IC50,MGC-803 [2],6.45
same,Ratio IC50,MCF7 [3],5.02
same,IC50,Bcap37 [4],15.7 µM
same,Activity,[5],Non-toxic
same,IC50,MCF7 [6],14.5 µM
same,IC50,PC-3 [7],12.5 µM
same,Ratio IC50,PC-3 [8],5.83
same,IC50,MGC-803 [9],11.3 µM
same,Ratio IC50,Bcap37 [10],4.64
same,IC50,A-375 [11],17.9 µM
C=C(C)[C@@H]1CC[C@]2(COC(=O)CCC(=O)N3CCCC3)CC[C@]3(C)[C@H](CC[C@@H]4[C@@]5(C)CC[C@H](O)C(C)(C)[C@@H]5CC[C@]43C)[C@@H]12,Ratio IC50,A-375 [1],3.52
same,Ratio IC50,MGC-803 [2],4.97
same,Ratio IC50,MCF7 [3],4.38
same,IC50,Bcap37 [4],7.9 µM
same,Activity,[5],Non-toxic
same,IC50,MCF7 [6],10.1 µM
same,IC50,PC-3 [7],8.3 µM
same,Ratio IC50,PC-3 [8],5.33
same,IC50,MGC-803 [9],8.9 µM
same,Ratio IC50,Bcap37 [10],5.6
same,IC50,A-375 [11],12.6 µM
C=C(C)[C@@H]1CC[C@]2(COC(=O)c3ccccc3Cl)CC[C@]3(C)[C@H](CC[C@@H]4[C@@]5(C)CC[C@H](OC(=O)c6ccccc6Cl)C(C)(C)[C@@H]5CC[C@]43C)[C@@H]12,IC50,Bcap37 [4],> 100 µM
same,IC50,MCF7 [6],> 100 µM
same,IC50,PC-3 [7],> 100 µM
same,IC50,MGC-803 [9],> 100 µM
same,IC50,A-375 [11],> 100 µM
C=C(C)[C@@H]1CC[C@]2(COC(=O)c3ccc(F)cc3)CC[C@]3(C)[C@H](CC[C@@H]4[C@@]5(C)CC[C@H](O)C(C)(C)[C@@H]5CC[C@]43C)[C@@H]12,IC50,Bcap37 [4],> 100 µM
same,IC50,MCF7 [6],> 100 µM
same,IC50,PC-3 [7],> 100 µM
same,IC50,MGC-803 [9],> 100 µM
same,IC50,A-375 [11],> 100 µM
C=C(C)[C@@H]1CC[C@]2(COC(=O)c3ccccc3)CC[C@]3(C)[C@H](CC[C@@H]4[C@@]5(C)CC[C@H](OC(=O)c6ccccc6)C(C)(C)[C@@H]5CC[C@]43C)[C@@H]12,IC50,Bcap37 [4],> 100 µM
same,IC50,MCF7 [6],> 100 µM
same,IC50,PC-3 [7],> 100 µM
same,IC50,MGC-803 [9],> 100 µM
same,IC50,A-375 [11],> 100 µM
C=C(C)[C@@H]1CC[C@]2(COC(=O)/C=C/C(=O)N3CCCCC3)CC[C@]3(C)[C@H](CC[C@@H]4[C@@]5(C)CC[C@H](O)C(C)(C)[C@@H]5CC[C@]43C)[C@@H]12,Ratio IC50,A-375 [1],>3
same,Ratio IC50,MGC-803 [2],>3
same,Ratio IC50,MCF7 [3],>3
same,IC50,Bcap37 [4],7.4 µM
same,Activity,[5],Toxic
same,IC50,MCF7 [6],6.3 µM
same,IC50,PC-3 [7],9.6 µM
same,Ratio IC50,PC-3 [8],>3
same,IC50,MGC-803 [9],5.3 µM
same,Ratio IC50,Bcap37 [10],>3
same,IC50,A-375 [11],14.4 µM
C=C(C)[C@@H]1CC[C@]2(COC(=O)c3ccccc3)CC[C@]3(C)[C@H](CC[C@@H]4[C@@]5(C)CC[C@H](O)C(C)(C)[C@@H]5CC[C@]43C)[C@@H]12,IC50,Bcap37 [4],> 100 µM
same,IC50,MCF7 [6],> 100 µM
same,IC50,PC-3 [7],> 100 µM
same,IC50,MGC-803 [9],> 100 µM
same,IC50,A-375 [11],> 100 µM
C=C(C)[C@@H]1CC[C@]2(CO)CC[C@]3(C)[C@H](CC[C@@H]4[C@@]5(C)CC[C@H](O)C(C)(C)[C@@H]5CC[C@]43C)[C@@H]12 [BETULIN],IC50,Bcap37 [4],25.5 µM
same,IC50,MCF7 [6],19.3 µM
same,IC50,PC-3 [7],22.4 µM
same,IC50,MGC-803 [9],30.2 µM
same,IC50,A-375 [11],28 µM
